The record followed here is patent US20190367516A1 (Bayer Pharma Aktiengesellschaft, priority 2015, published 2019).

In experiment [1] the target is T1, human M2 receptor (Homo sapiens, UniProt P08172).
T1 sequence (P08172 1-466): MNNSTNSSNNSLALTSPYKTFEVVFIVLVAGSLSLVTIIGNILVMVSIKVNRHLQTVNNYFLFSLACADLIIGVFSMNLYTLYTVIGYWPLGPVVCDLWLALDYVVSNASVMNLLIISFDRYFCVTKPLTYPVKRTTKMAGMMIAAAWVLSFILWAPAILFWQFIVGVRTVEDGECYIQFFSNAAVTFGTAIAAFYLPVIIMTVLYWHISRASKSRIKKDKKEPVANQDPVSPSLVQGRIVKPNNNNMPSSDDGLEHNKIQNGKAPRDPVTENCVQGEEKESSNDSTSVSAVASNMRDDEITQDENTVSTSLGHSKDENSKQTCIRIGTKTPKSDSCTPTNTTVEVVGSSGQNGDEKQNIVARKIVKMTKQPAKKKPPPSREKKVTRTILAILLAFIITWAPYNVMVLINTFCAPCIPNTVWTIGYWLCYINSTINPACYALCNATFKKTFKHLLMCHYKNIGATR
It counts as cell-based. The conditions noted are these: α >1 = positive cooperativity.

Experiment [2] addresses T1, human M2 receptor. The settings on record: for Emax: read-out: Efficiency, boosting of the acetylcholine effect at EC20 acetylcholine concentration; for Efficiency: boosting of the acetylcholine effect at EC20 acetylcholine concentration.
Setting [3] is: shift in the acetylcholine dose-response curve (Allosteric EC50 shift, GraphPad PRISM).
Where [4] appears, read: Receptor activity EC50, M2-GIRK1/4 activation test, acetylcholine at EC20, allosteric potency, in some cases mean values from two or more determinations.
Setting [5] is: shift of acetylcholine dose-response curve (Allosteric EC50 shift).
The mark [6] stands for this setting: Receptor activity EC50, allosteric potency at EC20 acetylcholine, M2-GIRK1/4 reporter cells, in some cases mean of two or more determinations.
[7] abbreviates: read-out: Receptor activity EC50, allosteric potency at EC20 acetylcholine, M2-GIRK1/4 reporter cells, in some cases mean of two or more determinations.

Where two headings read alike, the source gives them in different places.

Turning to `CC[C@@H](NC(=O)c1cn(-c2c(F)cccc2F)c2nc(N3CC4CC4(O)C3)ccc2c1=O)C(F)(F)F` (single isomer, unassigned) [Example 305], the “Cooperativity (alpha factor)” value at human M2 receptor [1] (setting [3]) is 23. Further, the midpoint of the response on human M2 receptor [2] (setting [4]), the EC50, lay at 12 nM.
The like results for `CC[C@@H](NC(=O)c1cn(-c2c(F)cccc2F)c2nc(N3CC4CC4(O)C3)ccc2c1=O)C(F)(F)F` (single isomer, unassigned) [Example 306] were, in that order, 21 and 52 nM.
The corresponding values for `CC[C@@H](NC(=O)c1cn(-c2ccc(F)cc2F)c2nc(N3CC4CC4(O)C3)ccc2c1=O)C(F)(F)F` (single isomer, unassigned) [Example 314] are 24 and 27 nM.
The corresponding values for `CC[C@@H](NC(=O)c1cn(-c2ccc(F)cc2F)c2nc(N3CC4CC4(O)C3)ccc2c1=O)C(F)(F)F` (single isomer, unassigned) [Example 315] are 25 and 38 nM.
As for `CC[C@H](NC(=O)c1cn(-c2c(F)cc(F)cc2Cl)c2nc(N3C[C@@H](O)CC3=O)ccc2c1=O)C(F)(F)F` (single isomer, unassigned) [Example 399], the “Cooperativity (alpha factor)” value on human M2 receptor [1] (setting [5]) is 11. At human M2 receptor [2] (setting [6]), a half-maximal effect (EC50) was put at 40 nM. Moreover, at human M2 receptor [2] (M2-GIRK1/4 reporter cells), the Emax stood at 96.5%.
Consider `CCC(COC(F)(F)F)NC(=O)c1cn(-c2c(F)cc(F)cc2F)c2nc(N3C[C@@H](O)CC3=O)ccc2c1=O` (single isomer, unassigned) [Example 412], for which the “Cooperativity (alpha factor)” value at human M2 receptor [1] (setting [5]) came to 34. The EC50 (as a rule, the concentration giving half of the maximal effect) on human M2 receptor [2] (setting [6]) stood at 16 nM. At human M2 receptor [2] (M2-GIRK1/4 reporter cells), this compound came in with an Efficiency of 98.0%.
The corresponding values for `CC[C@H](NC(=O)c1cn(-c2c(F)cc(F)cc2Cl)c2nc(N3CCC(C)C3=O)ccc2c1=O)C(F)(F)F` (single isomer, unassigned) [Example 424] are 15, 7 nM and 99.0%.
The like results for `CC[C@H](NC(=O)c1cn(-c2c(F)cc(F)cc2Cl)c2nc(N3CCC(C)C3=O)ccc2c1=O)C(F)(F)F` (single isomer, unassigned) [Example 425] were, in that order, 9, 5 nM and 90.5%.
`CC[C@@H](NC(=O)c1cn(-c2ccc(F)cc2F)c2nc(N3CC(C)NC3=O)ccc2c1=O)C(F)(F)F` (single isomer, unassigned) [Example 432]: at human M2 receptor [1] (setting [5]), the “Cooperativity (alpha factor)” value worked out at 26. Moreover, a half-maximal response on human M2 receptor [2] (setting [6]) (EC50) required 40 nM. Moreover, the Emax on human M2 receptor [2] (M2-GIRK1/4 reporter cells) was determined as 94%.
As to `O=C(NC(CC(F)(F)F)C1CC1)c1cn(-c2c(F)cc(F)cc2F)c2nc(N3C[C@@H](O)[C@H](O)C3)ccc2c1=O` (single isomer, unassigned) [Example 439], the “Cooperativity (alpha factor)” value at human M2 receptor [1] (setting [5]) is recorded as 35. Also, the response on human M2 receptor [2] (setting [6]) was half-maximal at 20 nM (EC50). For the same compound, the Emax at human M2 receptor [2] (M2-GIRK1/4 reporter cells) was 100%.
Consider `CCC1CCN(c2ccc3c(=O)c(C(=O)N[C@@H](C4CC4)C(F)(F)F)cn(-c4c(F)cc(F)cc4F)c3n2)C(=O)N1` (single isomer, unassigned) [Example 448, N-[(1 S)-1-Cyclopropyl-2,2,2-trifluoroethyl]-7-[4-ethyl-2-oxotetrahydropyrimidin-1(2H)-yl]-4-oxo-1-(2,4,6-trifluorophenyl)-1,4-dihydro-1,8-naphthyridine-3-carboxamide], for which the “Cooperativity (alpha factor)” value at human M2 receptor [1] (setting [5]) was 22. At human M2 receptor [2] (setting [6]), this compound gave an EC50 of 19 nM. For the same compound, the Efficiency at human M2 receptor [2] (M2-GIRK1/4 reporter cells) was determined as 97.0%.
Take `CC[C@@H](COC(F)(F)F)NC(=O)c1cn(-c2c(F)cc(F)cc2F)c2nc(N3C[C@@H](C)NC3=O)ccc2c1=O` (single isomer, unassigned) [Example 454]: the “Cooperativity (alpha factor)” value on human M2 receptor [1] (setting [5]) was 28. Further, the 50% effective concentration (EC50) on human M2 receptor [2] (setting [6]) was found to be 7 nM. The Emax at human M2 receptor [2] (M2-GIRK1/4 reporter cells) stood at 100%.
In the case of `CC[C@@H](COC(F)(F)F)NC(=O)c1cn(-c2c(F)cc(F)cc2F)c2nc(N3C[C@@H](C)NC3=O)ccc2c1=O` (single isomer, unassigned) [Example 455], on human M2 receptor [1] (setting [5]), the “Cooperativity (alpha factor)” value is given as 17. Besides, the EC50 on human M2 receptor [2] (setting [6]) was 10 nM. The same compound gave an Efficiency on human M2 receptor [2] (M2-GIRK1/4 reporter cells) of 100.0%.
Take `O=C(NC(C1CCC1)C(F)(F)F)c1cn(-c2c(F)cc(F)cc2F)c2nc(N3C[C@@H](O)CC3=O)ccc2c1=O` (single isomer, unassigned) [Example 506]: the “Cooperativity (alpha factor)” value on human M2 receptor [1] (setting [5]) is given as 57. The compound further returned an EC50 on human M2 receptor [2] (setting [6]) of 7 nM. Moreover, the Emax at human M2 receptor [2] (M2-GIRK1/4 reporter cells) is 100%.
As for `O=C(NC(C1CCC1)C(F)(F)F)c1cn(-c2c(F)cc(F)cc2F)c2nc(N3C[C@@H](O)CC3=O)ccc2c1=O` (single isomer, unassigned) [Example 507], the “Cooperativity (alpha factor)” value at human M2 receptor [1] (setting [5]) amounted to 37. The compound further came in with a concentration giving a half-maximal response (EC50) on human M2 receptor [2] (setting [6]) of 6 nM. The same compound displayed an Efficiency on human M2 receptor [2] (M2-GIRK1/4 reporter cells) of 98.0%.
With `CC(NC(=O)c1cn(-c2c(F)cc(F)cc2F)c2nc(N3C[C@@H](O)CC3=O)ccc2c1=O)(C1CC1)C(F)(F)F` (single isomer, unassigned) [Example 510], the “Cooperativity (alpha factor)” value at human M2 receptor [1] (setting [5]) was determined as 46. This compound also had an EC50 on human M2 receptor [2] (setting [6]) of 6 nM. Moreover, on human M2 receptor [2] (M2-GIRK1/4 reporter cells), the Efficiency worked out at 94.0%.
As for `O=C(NC(CC(F)(F)F)C1CC1)c1cn(-c2c(F)cc(F)cc2F)c2nc(N3C[C@@H](O)CC3=O)ccc2c1=O` (single isomer, unassigned) [Example 514], the “Cooperativity (alpha factor)” value on human M2 receptor [1] (setting [5]) is given as 30. The same compound gave an Efficiency at human M2 receptor [2] (M2-GIRK1/4 reporter cells) of 99.0%. At human M2 receptor [2] (setting [7]), the EC50 is 10 nM.
Regarding `CCC(NC(=O)c1cn(-c2c(F)cc(F)cc2F)c2nc(N3C[C@@H](O)CC3=O)ccc2c1=O)C(F)(F)C(F)(F)F` (single isomer, unassigned) [Example 521], the “Cooperativity (alpha factor)” value at human M2 receptor [1] (setting [5]) was determined as 72. For the same compound, the Efficiency at human M2 receptor [2] (M2-GIRK1/4 reporter cells) is 100.0%. Besides, the concentration for a half-maximal effect (EC50) on human M2 receptor [2] (setting [7]) came out at 2 nM.
Turning to `CC(C)C(NC(=O)c1cn(-c2c(F)cc(F)cc2F)c2nc(N3C[C@@H](O)CC3=O)ccc2c1=O)C(F)(F)F` (single isomer, unassigned) [Example 527], on human M2 receptor [1] (setting [5]), the “Cooperativity (alpha factor)” value is listed as 61. A half-maximal effect on human M2 receptor [2] (setting [6]) (EC50) was put at 5 nM. In addition, at human M2 receptor [2] (M2-GIRK1/4 reporter cells), the Emax amounted to 100%.
Take `CC(C)C(NC(=O)c1cn(-c2c(F)cc(F)cc2F)c2nc(N3C[C@@H](O)CC3=O)ccc2c1=O)C(F)(F)F` (single isomer, unassigned) [Example 528]: the “Cooperativity (alpha factor)” value on human M2 receptor [1] (setting [5]) is 66. The compound further yielded a 50% effective concentration (EC50) at human M2 receptor [2] (setting [6]) of 6 nM. On human M2 receptor [2] (M2-GIRK1/4 reporter cells), this compound gave an Efficiency of 100.0%.
The like results for `O=C(N[C@@H](C1CC1)C(F)(F)F)c1cn(-c2c(F)cc(F)cc2Cl)c2nc(N3C[C@@H](O)[C@H](O)C3)ccc2c1=O` (single isomer, unassigned) [Example 548] were, in that order, 37, 9 nM and 100.0%.
Take `CC(C)C(NC(=O)c1cn(-c2c(F)cc(F)cc2F)c2nc(N3C[C@@H](O)[C@H](O)C3)ccc2c1=O)C(F)(F)F` (single isomer, unassigned) [Example 553]: the “Cooperativity (alpha factor)” value on human M2 receptor [1] (setting [5]) is given as 49. On human M2 receptor [2] (setting [6]), the EC50 came out at 13 nM. Besides, the Emax at human M2 receptor [2] (M2-GIRK1/4 reporter cells) stood at 97.5%.
For the compound `CC(C)C(NC(=O)c1cn(-c2c(F)cc(F)cc2F)c2nc(N3C[C@@H](O)[C@H](O)C3)ccc2c1=O)C(F)(F)F` (single isomer, unassigned) [Example 554], the “Cooperativity (alpha factor)” value on human M2 receptor [1] (setting [5]) stood at 54. This compound gave a half-maximal effective concentration (EC50) on human M2 receptor [2] (setting [6]) of 10 nM. The compound further returned an Efficiency on human M2 receptor [2] (M2-GIRK1/4 reporter cells) of 94.5%.
`CCC(NC(=O)c1cn(-c2ccc(F)cc2F)c2nc(N3C[C@@H](O)CC3=O)ccc2c1=O)C(F)(F)C(F)(F)F` (single isomer, unassigned) [Example 557]: the “Cooperativity (alpha factor)” value on human M2 receptor [1] (setting [5]) amounted to 44. This compound had a concentration giving a half-maximal response (EC50) on human M2 receptor [2] (setting [6]) of 11 nM. Besides, at human M2 receptor [2] (M2-GIRK1/4 reporter cells), the Emax came out at 100%.
The corresponding values for `O=C(NC(c1ccccc1Cl)C(F)(F)F)c1cn(-c2c(F)cc(F)cc2F)c2nc(N3C[C@@H](O)[C@H](O)C3)ccc2c1=O` (single isomer, unassigned) [Example 561] are 62, 4 nM and 95%.
On to `O=C(NC(c1ccccc1Cl)C(F)(F)F)c1cn(-c2c(F)cc(F)cc2F)c2nc(N3C[C@@H](O)[C@H](O)C3)ccc2c1=O` (single isomer, unassigned) [Example 562], for which, on human M2 receptor [1] (setting [5]), the “Cooperativity (alpha factor)” value worked out at 40. Besides, the concentration for a half-maximal effect (EC50) at human M2 receptor [2] (setting [6]) was found to be 10 nM. The compound further came in with an Efficiency on human M2 receptor [2] (M2-GIRK1/4 reporter cells) of 100.0%.
The corresponding values for `CCC(COC(F)(F)F)NC(=O)c1cn(-c2c(F)cc(F)cc2F)c2nc(N3C[C@@H](O)[C@H](O)C3)ccc2c1=O` (single isomer, unassigned) [Example 578] are 29, 17 nM and 100.0%.
Turning to `O=C(NC(CC(F)(F)F)C(F)(F)F)c1cn(-c2c(F)cc(F)cc2F)c2nc(N3C[C@@H](O)CC3=O)ccc2c1=O` (single isomer, unassigned) [Example 607], the “Cooperativity (alpha factor)” value on human M2 receptor [1] (setting [5]) was determined as 32. The midpoint of the response on human M2 receptor [2] (setting [6]), the EC50, lay at 5 nM. For the same compound, the Emax on human M2 receptor [2] (M2-GIRK1/4 reporter cells) came out at 100%.
